This passage reports cell viability results from the supplement of paper PMC11451515.

This assay concerns NOMO1. As to the kind of experiment: cell viability relative to DMSO control; higher = less cytotoxic. To be noted: 48 h. In short, it runs like this:
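Leukemia cells (NOMO1 or SEM, 500 cells/well; P12-Ichikawa, 1000 cells/well) were seeded in 5 μl in 1536-well plates after at least four passages of adaptation to each medium. They received library compounds in DMSO by pin dosing, 11 threefold points from 47 μM to 0.79 nM. Luminescence with CellTiter-Glo One was read after 48 h at 37°C. Viability is stated per plate relative to DMSO wells, with cell-free wells as background.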

The mark [1] stands for this setting: HPLM + 10% dialyzed FBS, 0.000781 µM.
Where [2] appears, read: HPLM + 10% dialyzed FBS, 0.00234 µM.
[3] abbreviates: HPLM + 10% dialyzed FBS, 0.00702 µM.
Setting [4] is: HPLM + 10% dialyzed FBS, 0.0211 µM.
[5] abbreviates: HPLM + 10% dialyzed FBS, 0.0632 µM.
Where [6] appears, read: HPLM + 10% dialyzed FBS, 0.19 µM.
Where [7] appears, read: HPLM + 10% dialyzed FBS, 0.569 µM.
Where [8] appears, read: HPLM + 10% dialyzed FBS, 1.71 µM.
Where [9] appears, read: HPLM + 10% dialyzed FBS, 5.12 µM.
Setting [10] is: HPLM + 10% dialyzed FBS, 15.4 µM.
The mark [11] stands for this setting: HPLM + 10% dialyzed FBS, 46.1 µM.
[12] abbreviates: RPMI 5 mM glucose + 10% FBS, 0.000781 µM.
[13] abbreviates: RPMI 5 mM glucose + 10% FBS, 0.00234 µM.
[14] abbreviates: RPMI 5 mM glucose + 10% FBS, 0.00702 µM.
Where [15] appears, read: RPMI 5 mM glucose + 10% FBS, 0.0211 µM.
Setting [16] is: RPMI 5 mM glucose + 10% FBS, 0.0632 µM.
[17] abbreviates: RPMI 5 mM glucose + 10% FBS, 0.19 µM.
[18] abbreviates: RPMI 5 mM glucose + 10% FBS, 0.569 µM.
Where [19] appears, read: RPMI 5 mM glucose + 10% FBS, 1.71 µM.
The mark [20] stands for this setting: RPMI 5 mM glucose + 10% FBS, 5.12 µM.
Setting [21] is: RPMI 5 mM glucose + 10% FBS, 15.4 µM.
Where [22] appears, read: RPMI 5 mM glucose + 10% FBS, 46.1 µM.
[23] abbreviates: RPMI 5 mM glucose + 10% dialyzed FBS, 0.000781 µM.
Setting [24] is: RPMI 5 mM glucose + 10% dialyzed FBS, 0.00234 µM.
Where [25] appears, read: RPMI 5 mM glucose + 10% dialyzed FBS, 0.00702 µM.
[26] abbreviates: RPMI 5 mM glucose + 10% dialyzed FBS, 0.0211 µM.
[27] abbreviates: RPMI 5 mM glucose + 10% dialyzed FBS, 0.0632 µM.
Setting [28] is: RPMI 5 mM glucose + 10% dialyzed FBS, 0.19 µM.
Setting [29] is: RPMI 5 mM glucose + 10% dialyzed FBS, 0.569 µM.
Where [30] appears, read: RPMI 5 mM glucose + 10% dialyzed FBS, 1.71 µM.
The mark [31] stands for this setting: RPMI 5 mM glucose + 10% dialyzed FBS, 5.12 µM.
The mark [32] stands for this setting: RPMI 5 mM glucose + 10% dialyzed FBS, 15.4 µM.
Where [33] appears, read: RPMI 5 mM glucose + 10% dialyzed FBS, 46.1 µM.

By cell viability is commonly meant a read-out of living cells in per cent, often relative to untreated cells. Turning to `COc1cc(/C=C/C(=O)O)ccc1O`, the cell viability came out at 76.1% under setting [1]; 90.7% under setting [2]; 91.8% under setting [3]; 100% under setting [4]; 107% under setting [5]; 100% under setting [6]. Besides, the cell viability under setting [7] turned out to be 103%; the cell viability under setting [8] turned out to be 98.8%; the cell viability under setting [9] was determined as 82.6%; the cell viability under setting [10] stood at 108%; the cell viability under setting [11] came out at 101%; the cell viability under setting [12] is 84.9%. Further, the cell viability by setting is: under setting [13], 112%; under setting [14], 87.8%; under setting [15], 93.6%; under setting [16], 95.2%; under setting [17], 101%; under setting [18], 92.2%. Besides, the cell viability runs as follows: under setting [19], 95.1%; under setting [20], 107%; under setting [21], 96.6%; under setting [22], 104%; under setting [23], 84.3%; under setting [24], 91%. Moreover, the cell viability is 93.9% under setting [25]; 93.1% under setting [26]; 83.7% under setting [27]; 96.3% under setting [28]; 95.7% under setting [29]; 86.9% under setting [30]. For the same molecule, the cell viability reads like this: under setting [31], 89.9%; under setting [32], 92.5%; under setting [33], 102%.
On to `Nc1nc(Cl)nc2c1ncn2[C@@H]1O[C@H](CO)[C@@H](O)[C@@H]1F`, for which the cell viability was 41.7% under setting [1]; 70.8% under setting [2]; 43.4% under setting [3]; 33.3% under setting [4]; 26.6% under setting [5]; 18.2% under setting [6]. Further, the cell viability under setting [7] stood at 24.7%; the cell viability under setting [8] is 23.9%; the cell viability under setting [9] was found to be 21.2%; the cell viability under setting [10] is 18.1%; the cell viability under setting [11] turned out to be 18.6%; the cell viability under setting [12] came to 77.2%. The cell viability was determined as 131% under setting [13]; 49% under setting [14]; 27.2% under setting [15]; 20% under setting [16]; 21.7% under setting [17]; 16.9% under setting [18]. Besides, the cell viability is, setting by setting: under setting [19], 16.7%; under setting [20], 18.4%; under setting [21], 16%; under setting [22], 13.5%; under setting [23], 38.9%; under setting [24], 63.2%. Moreover, the cell viability amounted to 29.8% under setting [25]; 25.7% under setting [26]; 23% under setting [27]; 23.6% under setting [28]; 19.9% under setting [29]; 16.4% under setting [30]. For the same molecule, the cell viability under setting [31] was determined as 14.2%, the cell viability under setting [32] came to 19.7% and the cell viability under setting [33] was 17.1%.
Turning to `OCc1ccc(-c2ccc(-c3ccc(CO)s3)o2)s1`, the cell viability under setting [1] was 124%; the cell viability under setting [2] was 121%; the cell viability under setting [3] came to 138%; the cell viability under setting [4] was found to be 147%; the cell viability under setting [5] turned out to be 124%; the cell viability under setting [6] was 114%. In addition, the cell viability was determined as 122% under setting [7]; 107% under setting [8]; 118% under setting [9]; 108% under setting [10]; 96.2% under setting [11].
On to `CCOc1ccc(Cc2cc([C@@H]3O[C@H](CO)[C@@H](O)[C@H](O)[C@H]3O)ccc2Cl)cc1`, for which the cell viability reads like this: under setting [12], 114%; under setting [13], 133%; under setting [14], 124%; under setting [15], 125%; under setting [16], 138%; under setting [17], 128%. The cell viability amounted to 128% under setting [18]; 136% under setting [19]; 124% under setting [20]; 133% under setting [21]; 129% under setting [22].
